From patent publication US20160367623A1, “AGONISTS OF GUANYLATE CYCLASE USEFUL FOR THE TREATMENT OF GASTROINTESTINAL DISORDERS, INFLAMMATION, CANCER AND OTHER DISORDERS” (priority 2015, published 2016)
Bridge positions count the residues as written; N and C are the ends. Ends that are not written are not given here.

System: patients with chronic idiopathic constipation (CIC)
Experiment: Second phase 3 CIC trial: CSBM weekly responders by week
Type: in vivo, human
Details: MRA
Excerpt: Both trials include a two-week pre-treatment baseline period, a 12-week treatment period, and a two-week post-treatment period. The phase 3 CIC program was designed to support regulatory submission in the U. S.
The primary endpoint for both trials is the proportion of durable overall responders (%), which is the current regulatory endpoint required for U.S. approval in CIC. The FDA has defined a durable overall responder as a patient who fulfills both ≧3 complete spontaneous bowel movements (CSBMs) per week plus an increase of ≧1 CSBM from baseline in the same week, for 9 out of the 12 treatment weeks. In addition, the same patient must be an overall responder for at least 3 of the last 4 treatment weeks in order to be considered a durable overall responder.
Patients were selected using Rome 3 criteria modified for CIC and had (1) fewer than 3 defecations per week, (2) loose stools occurring rarely without laxatives, (3) inadequate criteria for irritable bowel syndrome with constipation (IBS-C), and (4) at least two of the following applied to at least 25% of defecations: (a) straining during evacuation, (b) lumpy or hard stools, (c) sensation of anorectal obstruction or blockage. Rome 3 requires patients to fulfill the criteria for the last 3 months with symptom onset at least 6 months prior to diagnosis.

[1] = Week 2, 6 mg, ITT Population-Excluding Duplicate Patients
[2] = Week 2, Active Combined, ITT Population-Excluding Duplicate Patients
[3] = Week 2, Active Combined, ITT Population
[4] = Week 3, 3 mg, ITT Population-Excluding Duplicate Patients
[5] = Week 3, 6 mg, ITT Population-Excluding Duplicate Patients
[6] = Week 3, Active Combined, ITT Population-Excluding Duplicate Patients
[7] = Week 3, Active Combined, ITT Population
[8] = Week 4, 3 mg, ITT Population-Excluding Duplicate Patients
[9] = Week 4, 6 mg, ITT Population-Excluding Duplicate Patients
[10] = Week 4, Active Combined, ITT Population-Excluding Duplicate Patients
[11] = Week 4, Active Combined, ITT Population
[12] = Week 5, 3 mg, ITT Population-Excluding Duplicate Patients
[13] = Week 5, 6 mg, ITT Population-Excluding Duplicate Patients
[14] = Week 5, Active Combined, ITT Population-Excluding Duplicate Patients

Asn^1-Asp^2-Glu^3-Cys^4-Glu^5-Leu^6-Cys^7-Val^8-Asn^9-Val^10-Ala^11-Cys^12-Thr^13-Gly^14-Cys^15-Leu^16 (NDECELCVNVACTGCL; disulfide 4-12, 7-15) [Plecanatide, uroguanylin analogue, guanylate cyclase-C agonist; (C4:C12, C7:C15) bicycle peptide]
Difference in Proportions (adjusted) (Week 2, 6 mg minus placebo, All Randomized (includes Duplicate Patients)): 0.114
Odds Ratio (adjusted) (Week 2, 6 mg vs placebo, All Randomized (includes Duplicate Patients)): 0.513
CSBM Weekly Responders, n (%) (Week 2, 6 mg, All Randomized (includes Duplicate Patients)): 132 (28.0) n (%)
CSBM Weekly Responders, n (%) (Week 2, 6 mg, ITT Population): 123 (27.4) n (%)
Non-Responders, n (%) (Week 2, 6 mg, ITT Population): 326 (72.6) n (%)
CSBM Weekly Responders, n (%) [1]: 123 (27.8) n (%)
Non-Responders, n (%) [1]: 320 (72.2) n (%)
CSBM Weekly Responders, n (%) (Week 2, Active Combined, All Randomized (includes Duplicate Patients)): 252 (26.8) n (%)
Difference in Proportions (adjusted) (Week 2, 3 mg minus placebo, ITT Population-Excluding Duplicate Patients): 0.086
Difference in Proportions (adjusted) (Week 2, 3 mg minus placebo, ITT Population): 0.087
Odds Ratio (adjusted) (Week 2, 3 mg vs placebo, ITT Population-Excluding Duplicate Patients): 0.592
Odds Ratio (adjusted) (Week 2, 3 mg vs placebo, ITT Population): 0.59
Difference in Proportions (adjusted) (Week 2, 6 mg minus placebo, ITT Population-Excluding Duplicate Patients): 0.111
Difference in Proportions (adjusted) (Week 2, 6 mg minus placebo, ITT Population): 0.108
Odds Ratio (adjusted) (Week 2, 6 mg vs placebo, ITT Population-Excluding Duplicate Patients): 0.523
Odds Ratio (adjusted) (Week 2, 6 mg vs placebo, ITT Population): 0.53
CSBM Weekly Responders, n (%) [2]: 233 (26.6) n (%)
Non-Responders, n (%) [2]: 644 (73.4) n (%)
CSBM Weekly Responders, n (%) [3]: 235 (26.3) n (%)
Non-Responders, n (%) [3]: 657 (73.7) n (%)
Difference in Proportions (adjusted) (Week 3, 3 mg minus placebo, All Randomized (includes Duplicate Patients)): 0.070
Odds Ratio (adjusted) (Week 3, 3 mg vs placebo, All Randomized (includes Duplicate Patients)): 0.691
CSBM Weekly Responders, n (%) (Week 3, 3 mg, All Randomized (includes Duplicate Patients)): 135 (28.7) n (%)
CSBM Weekly Responders, n (%) (Week 3, 3 mg, ITT Population): 125 (28.2) n (%)
Non-Responders, n (%) (Week 3, 3 mg, ITT Population): 318 (71.8) n (%)
CSBM Weekly Responders, n (%) [4]: 122 (28.1) n (%)
Non-Responders, n (%) [4]: 312 (71.9) n (%)
Difference in Proportions (adjusted) (Week 3, 6 mg minus placebo, All Randomized (includes Duplicate Patients)): 0.056
Odds Ratio (adjusted) (Week 3, 6 mg vs placebo, All Randomized (includes Duplicate Patients)): 0.738
CSBM Weekly Responders, n (%) (Week 3, 6 mg, ITT Population): 120 (26.7) n (%)
Non-Responders, n (%) (Week 3, 6 mg, ITT Population): 329 (73.3) n (%)
CSBM Weekly Responders, n (%) [5]: 119 (26.9) n (%)
Non-Responders, n (%) [5]: 324 (73.1) n (%)
Difference in Proportions (adjusted) (Week 3, 3 mg minus placebo, ITT Population-Excluding Duplicate Patients): 0.054
Difference in Proportions (adjusted) (Week 3, 3 mg minus placebo, ITT Population): 0.057
Odds Ratio (adjusted) (Week 3, 3 mg vs placebo, ITT Population-Excluding Duplicate Patients): 0.750
Odds Ratio (adjusted) (Week 3, 3 mg vs placebo, ITT Population): 0.739
Difference in Proportions (adjusted) (Week 3, 6 mg minus placebo, ITT Population-Excluding Duplicate Patients): 0.042
Difference in Proportions (adjusted) (Week 3, 6 mg minus placebo, ITT Population): 0.043
Odds Ratio (adjusted) (Week 3, 6 mg vs placebo, ITT Population-Excluding Duplicate Patients): 0.798
Odds Ratio (adjusted) (Week 3, 6 mg vs placebo, ITT Population): 0.796
CSBM Weekly Responders, n (%) [6]: 241 (27.5) n (%)
Non-Responders, n (%) [6]: 636 (72.5) n (%)
CSBM Weekly Responders, n (%) [7]: 245 (27.5) n (%)
Non-Responders, n (%) [7]: 647 (72.5) n (%)
Difference in Proportions (adjusted) (Week 4, 3 mg minus placebo, All Randomized (includes Duplicate Patients)): 0.093
Odds Ratio (adjusted) (Week 4, 3 mg vs placebo, All Randomized (includes Duplicate Patients)): 0.611
CSBM Weekly Responders, n (%) (Week 4, 3 mg, ITT Population): 132 (29.8) n (%)
Non-Responders, n (%) (Week 4, 3 mg, ITT Population): 311 (70.2) n (%)
CSBM Weekly Responders, n (%) [8]: 130 (30.0) n (%)
Non-Responders, n (%) [8]: 304 (70.0) n (%)
Difference in Proportions (adjusted) (Week 4, 6 mg minus placebo, All Randomized (includes Duplicate Patients)): 0.082
Odds Ratio (adjusted) (Week 4, 6 mg vs placebo, All Randomized (includes Duplicate Patients)): 0.644
CSBM Weekly Responders, n (%) (Week 4, 6 mg, ITT Population): 127 (28.3) n (%)
Non-Responders, n (%) (Week 4, 6 mg, ITT Population): 322 (71.7) n (%)
CSBM Weekly Responders, n (%) [9]: 126 (28.4) n (%)
Non-Responders, n (%) [9]: 317 (71.6) n (%)
Difference in Proportions (adjusted) (Week 4, 3 mg minus placebo, ITT Population-Excluding Duplicate Patients): 0.082
Difference in Proportions (adjusted) (Week 4, 3 mg minus placebo, ITT Population): 0.082
Odds Ratio (adjusted) (Week 4, 3 mg vs placebo, ITT Population-Excluding Duplicate Patients): 0.650
Odds Ratio (adjusted) (Week 4, 3 mg vs placebo, ITT Population): 0.648
Difference in Proportions (adjusted) (Week 4, 6 mg minus placebo, ITT Population-Excluding Duplicate Patients): 0.067
Difference in Proportions (adjusted) (Week 4, 6 mg minus placebo, ITT Population): 0.067
Odds Ratio (adjusted) (Week 4, 6 mg vs placebo, ITT Population-Excluding Duplicate Patients): 0.698
Odds Ratio (adjusted) (Week 4, 6 mg vs placebo, ITT Population): 0.697
CSBM Weekly Responders, n (%) [10]: 256 (29.2) n (%)
Non-Responders, n (%) [10]: 621 (70.8) n (%)
CSBM Weekly Responders, n (%) [11]: 259 (29.0) n (%)
Non-Responders, n (%) [11]: 633 (71.0) n (%)
Difference in Proportions (adjusted) (Week 5, 3 mg minus placebo, All Randomized (includes Duplicate Patients)): 0.119
Odds Ratio (adjusted) (Week 5, 3 mg vs placebo, All Randomized (includes Duplicate Patients)): 0.560
CSBM Weekly Responders, n (%) (Week 5, 3 mg, ITT Population): 154 (34.8) n (%)
Non-Responders, n (%) (Week 5, 3 mg, ITT Population): 289 (65.2) n (%)
CSBM Weekly Responders, n (%) [12]: 153 (35.3) n (%)
Non-Responders, n (%) [12]: 281 (64.7) n (%)
Difference in Proportions (adjusted) (Week 5, 6 mg minus placebo, All Randomized (includes Duplicate Patients)): 0.061
Odds Ratio (adjusted) (Week 5, 6 mg vs placebo, All Randomized (includes Duplicate Patients)): 0.731
CSBM Weekly Responders, n (%) (Week 5, 6 mg, ITT Population): 133 (29.6) n (%)
Non-Responders, n (%) (Week 5, 6 mg, ITT Population): 316 (70.4) n (%)
CSBM Weekly Responders, n (%) [13]: 132 (29.8) n (%)
Non-Responders, n (%) [13]: 311 (70.2) n (%)
Difference in Proportions (adjusted) (Week 5, 3 mg minus placebo, ITT Population-Excluding Duplicate Patients): 0.107
Difference in Proportions (adjusted) (Week 5, 3 mg minus placebo, ITT Population): 0.105
Odds Ratio (adjusted) (Week 5, 3 mg vs placebo, ITT Population-Excluding Duplicate Patients): 0.596
Odds Ratio (adjusted) (Week 5, 3 mg vs placebo, ITT Population): 0.602
Difference in Proportions (adjusted) (Week 5, 6 mg minus placebo, ITT Population-Excluding Duplicate Patients): 0.053
Difference in Proportions (adjusted) (Week 5, 6 mg minus placebo, ITT Population): 0.054
Odds Ratio (adjusted) (Week 5, 6 mg vs placebo, ITT Population-Excluding Duplicate Patients): 0.764
Odds Ratio (adjusted) (Week 5, 6 mg vs placebo, ITT Population): 0.762
CSBM Weekly Responders, n (%) [14]: 285 (32.5) n (%)
Non-Responders, n (%) [14]: 592 (67.5) n (%)
CSBM Weekly Responders, n (%) (Week 5, Active Combined, ITT Population): 287 (32.2) n (%)
